Experimental data published in US5866775A, “Glyphosate-tolerant 5-enolpyruvyl-3-phosphoshikimate synthases” (Monsanto Company, priority 1990, dated 1999).

Test system: petunia leaf disks transformed with control vector pMON505
Experiment: Leaf disk callus growth on glyphosate medium, control disks
Type: cell-based
Conditions: within 10 days
Method: Leaf disks with diameters of 6 mm (1/4 inch) were taken from surface-sterilized petunia leaves. They were cultured on MS104 agar medium for 2 days to promote partial cell wall formation at the wound surfaces. They were then submerged in a culture of A. tumefaciens cells containing both pMON546 and GV3111-SE which had grown overnight in Luria broth at 28° C., and shaken gently. The leaf disks were removed from the bacterial suspension, blotted dry, and incubated upside down on filter paper placed over "nurse" cultures of tobacco cells, as described by Horsch (1980). After 2 or 3 days, the disks were transferred to petri dishes containing MS media with 500 μg/ml carbenicillin and 0. 0.1, 0.25, or 0.5 mM glyphosate (sodium salt), with no nurse cultures.
Control tissue was created using A. tumefaciens cells containing the helper plasmid pGV3111-SE and a different plant transformation vector, pMON505, which contained a T-DNA region with a NOS/NPTII/NOS kanamycin resistance gene and a NOS selectable marker gene identical to pMON546, but without the CaMV35S/EPSP synthase gene.

For O=C(O)CNCP(=O)(O)O [glyphosate, N-phosphonomethylglycine], the callus growth (0.25 mM glyphosate (sodium salt)) was “very little growth of callus from control disks” and the callus growth (0.5 mM glyphosate (sodium salt)) was “no callus growth from the control disks”.
